Experimental data: patent US5191079A, “Quinolinecarboxylic acid derivatives” (priority 1990, dated 1993)
≈ marks a conversion by molar mass, not a printed value. Counter-ions that a name gives are not always drawn.

What was measured:
Type in all cases: cell-based
[1] = tested on: clinically isolated Staphylococcus epidermidis; assay: In vitro antibacterial activity against clinical isolates, Experiment 2; conditions: Staphylococcus epidermidis, 25 clinical strains S. epidermidis; for MIC50: 50% of strains, read-out: MIC50; for MIC90: 90% of strains, read-out: MIC90
Procedure: The above solutions were then diluted with sterilized distilled water to prepare a standard solution with a concentration of the test compound: 1000 μg/ml each.
For the preculture of each microorganism, there was used as the medium a sensitivity test broth (manufactured by Nissui Seiyaku K. K., Japan), and for the measurement of MIC, there was used a sensitivity test agar medium (manufactured by Nissui Seiyaku K. K.).
The clinically isolates used above were isolated from Nov. 1988 to Jun. 1989 and were obtained from Research Section, Tokyo Clinical Research Center.

[2] = tested on: Bacillus subtilis ATCC 6633; assay: MIC, Experiment 1; conditions: ATCC6633, B. subtilis ATCC 6633, Gram +, read-out: Min. inhib. concentr. (MIC)
Procedure: (§1) The compounds of the present invention (B, E, G, H, M, N, O, P and Q) were each dissolved in dimethylsulfoxide to prepare a solution of 5000 μg/ml in concentration. The compounds of the present invention (I, J and K) and the known compound (Y) were each dissolved in sterilized distilled water to prepare a solution of 5000 μg/ml in concentration. Each solution was diluted with sterilized distilled water to prepare a standard solution with a concentration of each test compound: 1000 μg/ml. The test was carried out by a method as appointed by Japan Society of Chemotherapy [cf. Chemotherapy, 29, 76-79 (1981), TOKYO].
(§2) As to Streptococcus pneumoniae and Streptococcus pyogenes, Brain heart infusion broth (manufactured by DIFCO) was used as the medium for the preculture thereof, and a heart infusion agar medium containing 5% defibrinated horse blood (manufactured by Nissui Seiyaku K. K., Japan) was used as the medium for the measurement of minimum inhibitory concentration (MIC). As to other microorganisms, a sensitivity test broth (manufactured by Nissui Seiyaku K. K.) was used as the medium for the preculture thereof, and a sensitivity test agar medium (manufactured by Nissui Seiyaku K. K.) was used as the medium for the measurement of MIC.

[3] = tested on: Staphylococcus aureus IID 803; assay: MIC, Experiment 1; conditions: IID803, S. aureus IID 803, Gram +, read-out: Min. inhib. concentr. (MIC)
Procedure: as §1, §2

Enterobacter cloacae 963 = assay: MIC, Experiment 1; conditions: E. cloacae 963, Gram -, read-out: Min. inhib. concentr. (MIC)
Procedure: as §1, §2

[4] = tested on: Escherichia coli NIHJ JC-2; assay: MIC, Experiment 1; conditions: NIHJJC2, E. coli NIHJ JC-2, Gram -, read-out: Min. inhib. concentr. (MIC)
Procedure: as §1, §2

[5] = tested on: Streptococcus pneumoniae IID 552; assay: MIC, Experiment 1; conditions: IID552, S. pneumoniae IID 552, Gram +, agar with 5% defibrinated horse blood, read-out: Min. inhib. concentr. (MIC)
Procedure: as §1, §2

[6] = tested on: Proteus mirabilis IFO 3849; assay: MIC, Experiment 1; conditions: IFO3849, P. mirabilis IFO 3849, Gram -, read-out: Min. inhib. concentr. (MIC)
Procedure: as §1, §2

[7] = tested on: Acinetobacter calcoaceticus Ac 54; assay: MIC, Experiment 1; conditions: AC54, A. calcoaceticus Ac 54, Gram -, read-out: Min. inhib. concentr. (MIC)
Procedure: as §1, §2

[8] = tested on: Staphylococcus aureus FDA 209P JC-1; assay: MIC, Experiment 1; conditions: FDA209P, S. aureus FDA 209P JC-1, Gram +, read-out: Min. inhib. concentr. (MIC)
Procedure: as §1, §2

[9] = tested on: Staphylococcus aureus Cowan I (IID 975); assay: MIC, Experiment 1; conditions: IID975, S. aureus Cowan I (IID 975), Gram +, read-out: Min. inhib. concentr. (MIC)
Procedure: as §1, §2

[10] = tested on: Staphylococcus aureus FDA 243; assay: MIC, Experiment 1; conditions: FDA243, S. aureus FDA 243, Gram +, read-out: Min. inhib. concentr. (MIC)
Procedure: as §1, §2

[11] = tested on: Staphylococcus aureus MS-353; assay: MIC, Experiment 1; conditions: MS353, S. aureus MS-353, Gram +, read-out: Min. inhib. concentr. (MIC)
Procedure: as §1, §2

[12] = tested on: Micrococcus luteus ATCC 9341; assay: MIC, Experiment 1; conditions: ATCC9341, M. luteus ATCC 9341, Gram +, read-out: Min. inhib. concentr. (MIC)
Procedure: as §1, §2

[13] = tested on: Staphylococcus aureus ATCC 9144; assay: MIC, Experiment 1; conditions: ATCC9144, S. aureus ATCC 9144, Gram +, read-out: Min. inhib. concentr. (MIC)
Procedure: as §1, §2

[14] = tested on: Klebsiella pneumoniae PCI-602; assay: MIC, Experiment 1; conditions: PCI602, K. pneumoniae PCI-602, Gram -, read-out: Min. inhib. concentr. (MIC)
Procedure: as §1, §2

[15] = tested on: Pseudomonas aeruginosa NCTC 10490; assay: MIC, Experiment 1; conditions: NCTC10490, P. aeruginosa NCTC 10490, Gram -, read-out: Min. inhib. concentr. (MIC)
Procedure: as §1, §2

[16] = tested on: Streptococcus pneumoniae IID 554; assay: MIC, Experiment 1; conditions: IID554, S. pneumoniae IID 554, Gram +, agar with 5% defibrinated horse blood, read-out: Min. inhib. concentr. (MIC)
Procedure: as §1, §2

Bacillus cereus IAM 1029 = assay: MIC, Experiment 1; conditions: IAM1029, B. cereus IAM 1029, Gram +, read-out: Min. inhib. concentr. (MIC)
Procedure: as §1, §2

[17] = tested on: Streptococcus pyogenes Su; assay: MIC, Experiment 1; conditions: S. pyogenes Su, Gram +, agar with 5% defibrinated horse blood, read-out: Min. inhib. concentr. (MIC)
Procedure: as §1, §2

[18] = tested on: Streptococcus pyogenes Cook; assay: MIC, Experiment 1; conditions: S. pyogenes Cook, Gram +, agar with 5% defibrinated horse blood, read-out: Min. inhib. concentr. (MIC)
Procedure: as §1, §2

[19] = tested on: Streptococcus pyogenes Sv; assay: MIC, Experiment 1; conditions: S. pyogenes Sv, Gram +, agar with 5% defibrinated horse blood, read-out: Min. inhib. concentr. (MIC)
Procedure: as §1, §2

[20] = tested on: Staphylococcus aureus Terajima (IID 670); assay: MIC, Experiment 1; conditions: IID670, S. aureus Terajima (IID 670), Gram +, read-out: Min. inhib. concentr. (MIC)
Procedure: as §1, §2

Row | Structure (SMILES) | MIC [1] | MIC50 [1] | MIC90 [1] | MIC [2] | MIC [3] | MIC (Enterobacter cloacae 963) | MIC [4] | MIC [5] | MIC [6] | MIC [7] | MIC [8] | MIC [9] | MIC [10] | MIC [11] | MIC [12] | MIC [13] | MIC [14] | MIC [15] | MIC [16] | MIC (Bacillus cereus IAM 1029) | also measured
1 | CN1Cc2csc3c(C(=O)O)c(=O)c4cc(F)c(N5CCC(=O)CC5)c1c4n23 [Compound (G), 9,1-(Methylimino)methano-7-fluoro-8-(4-oxopiperidino)-5-oxo-5H-thiazolo[3,2-a]quinoline-4-carboxylic acid] | 0.006 to 0.2 µg/mL (≈ 0.0149 to 0.498 µM) | 0.013 µg/mL (≈ 0.0324 µM) | 0.2 µg/mL (≈ 0.498 µM) | ≤ 0.006 µg/mL | ≤ 0.006 µg/mL | 0.2 µg/mL (≈ 0.498 µM) | 0.1 µg/mL (≈ 0.249 µM) | 0.025 µg/mL (≈ 0.0623 µM) | 0.2 µg/mL (≈ 0.498 µM) | ≤ 0.006 µg/mL | 0.013 µg/mL (≈ 0.0324 µM) | ≤ 0.006 µg/mL | ≤ 0.006 µg/mL | ≤ 0.006 µg/mL | 0.05 µg/mL (≈ 0.125 µM) | ≤ 0.006 µg/mL | ≤ 0.006 µg/mL | 0.39 µg/mL (≈ 0.972 µM) | 0.025 µg/mL (≈ 0.0623 µM) | 0.013 µg/mL (≈ 0.0324 µM) | MIC [17]: 0.013 µg/mL (≈ 0.0324 µM); MIC [18]: 0.025 µg/mL (≈ 0.0623 µM); MIC [19]: 0.025 µg/mL (≈ 0.0623 µM); MIC [20]: 0.013 µg/mL (≈ 0.0324 µM)
2 | COC[C@H]1CN(c2c(F)cc3c(=O)c(C(=O)O)c4scc5n4c3c2N(C)C5)CCO1 [Compound (P), 9,1-(Methylimino)methano-7-fluoro-8-[(2R)-2-methoxymethylmorpholino)-5-oxo-5H-thiazolo[3,2-a]quinoline-4-carboxylic acid] | 0.006 to 0.78 µg/mL (≈ 0.0138 to 1.8 µM) | 0.05 µg/mL (≈ 0.115 µM) | 0.39 µg/mL (≈ 0.9 µM) | ≤ 0.006 µg/mL | 0.025 µg/mL (≈ 0.0577 µM) | 1.56 µg/mL (≈ 3.6 µM) | 0.2 µg/mL (≈ 0.461 µM) | 0.05 µg/mL (≈ 0.115 µM) | 0.78 µg/mL (≈ 1.8 µM) | 0.013 µg/mL (≈ 0.03 µM) | 0.05 µg/mL (≈ 0.115 µM) | 0.006 µg/mL (≈ 0.0138 µM) | ≤ 0.006 µg/mL | 0.025 µg/mL (≈ 0.0577 µM) | 0.2 µg/mL (≈ 0.461 µM) | 0.013 µg/mL (≈ 0.03 µM) | 0.025 µg/mL (≈ 0.0577 µM) | 1.56 µg/mL (≈ 3.6 µM) | 0.1 µg/mL (≈ 0.231 µM) | 0.025 µg/mL (≈ 0.0577 µM) | MIC [17]: 0.05 µg/mL (≈ 0.115 µM); MIC [18]: 0.05 µg/mL (≈ 0.115 µM); MIC [19]: 0.1 µg/mL (≈ 0.231 µM); MIC [20]: 0.05 µg/mL (≈ 0.115 µM)
3 | COCC1CN(c2c(F)cc3c(=O)c(C(=O)O)c4scc5n4c3c2N(C)C5)CCN1C (stereo not drawn) [Compound (J), 9,1-(Methylimino)methano-7-fluoro-8-(3-methoxymethyl-4-methyl-1-piperazinyl)-5-oxo-5H-thiazolo[3,2-a]quinoline-4-carboxylic acid hydrochloride] | 0.05 to 6.25 µg/mL | 0.1 µg/mL | 3.13 µg/mL | 0.05 µg/mL | 0.1 µg/mL | 0.39 µg/mL | 0.39 µg/mL | 0.05 µg/mL | 1.56 µg/mL | 0.1 µg/mL | 0.05 µg/mL | 0.05 µg/mL | 0.05 µg/mL | 0.1 µg/mL | 0.39 µg/mL | 0.1 µg/mL | 0.05 µg/mL | 1.56 µg/mL | 0.1 µg/mL | 0.1 µg/mL | MIC [17]: 0.1 µg/mL; MIC [18]: 0.1 µg/mL; MIC [19]: 0.1 µg/mL; MIC [20]: 0.1 µg/mL
